# Assay results: patent US8552052B2, “Use of diindolylmethane-related indoles for the treatment and prevention of respiratory syncytial virus associated conditions” (BioResponse, L.L.C., priority 2004, dated 2013)
# Entries after “also recorded” stand apart in the source; their conditions may differ.
# Columns and labels:
# RSV infected A549 cells = assay: TUNEL assay for visualization of apoptosis in RSV infected A549 cells; type: cell-based, human; settings: DIM at 210 and 700 nM; 12, 18, and 24 hours post infection; data not shown
# Method: Cell Culture—A549 cells, a tumor cell line with properties of normal airway epithelial cells, were obtained from American Type Culture Collection (ATCC, Manassas, Va.) and incubated at 37° C. in 5% CO2. The cells were cultured in Eagle's minimum essential medium (MEM, Invitrogen) supplemented with 10% fetal bovine serum (HyClone, Logan, Utah) and […] gentamicin. The A549 cells were subcultured by harvesting in 0.12% trypsin no more than 20 times from stock originally designated at pass 70. To minimize effects of exogenous growth factors or cytokines in this system, the supplemented serum concentration was reduced to 0.5% 24 h prior to and during all experiments with RSV infection.
# RSV Virus—RSV, strain A2, was obtained from Advanced Biotechnologies Inc. (Columbia, Md.) and was used directly as supplied for all experiments. The viral preparation was tested to have a TCID50 titer of ˜1×10^9 in Hep-2 cells at 7 days. Sterile vials of the RSV preparation were supplied in MEM supplemented with 10% fetal calf serum, stored at −135° C. and rapidly thawed at 37° C. immediately prior to use. […]
# Apotosis in RSV infected A549 cells cultured with and without DIM was further studied using the TUNEL assay for visualization of apoptosis. […] To remove unincorporated dUTP, slides were washed three times 15 min each with 2×SSC and three times with PBS, and then viewed in a fluorescence microscope. […]
# [1] = tested on: Recombinant RSV virus producing green fluorescent protein (gRSV); assay: Intracellular RSV growth, real-time fluorescence of GFP-producing RSV (gRSV) in A549 cells; type: cell-based, Respiratory Syncytial Virus; settings: cultured A549 cells; beginning 12 hours after addition of nM DIM (70, 210, 700 nM); FIG. 3
# Excerpt: Levels of Intracellular RSV Growth—A real-time fluorescence measurement of live infected cells was utilized to determine the intracellular levels of RSV. Quantitation of real-time RSV growth in live cells was accomplished using a strain of RSV virus which produces florescent protein. Recombinant RSV virus producing green fluorescent protein (GFP) (‘green RSV’, abbreviated as ‘gRSV’) was kindly provided by Dr. Mark Peeples (Columbus Children's Res. Inst., Ohio). A549 cell monolayers were infected with the gRSV in the presence of indicated concentrations of DIM, and were periodically observed by fluorescence microscopy. For quantification, the fluorescence was measured in a standard plate-reader.
# RSV Long strain = assay: Respiratory rate in RSV infected BALB/c mice; type: in vivo; settings: oral, SC low dose and SC high dose DIM; 6 and 10 days pi; vs RSV-infected, untreated control mice; FIG. 6
# Method: The Following Experimental BALB/c Groups and Treatment Protocol Using DIM were Studied: • 1. RSV infected positive control group, infected with RSV and injected subcutaneously (SC) once daily with DMSO/Phosphate Buffered Saline (PBS) vehicle. • 2. RSV infected, Low dose Parenteral DIM group (15 mg/kg/day), injected SC once daily with DIM suspension • 3. RSV infected, High dose DIM Group (150 mg/kg/day), injected SC once daily with DIM suspension • 4. RSV infected, orally treated DIM group (250 mg/kg/day from absorption enhanced DIM [Example 6.1]), added to powdered feed • 5. Uninfected negative control group, nasally administered vehicle only, and injected subcutaneously (SC) once daily with DMSO/PBS vehicle
# Mouse treatment, infection and harvest. Intranasal application of RSV in BALB/c mice followed an established procedure (Bitko et al., 2005, Nat Med. 11(1):50-5) and causes predictable pulmonary disease and inflammation. For RSV infection, RSV stock was diluted such that each mouse was given 10^7 pfu (plaque forming unit) of the virus intranasally. […]
# Pulmonary viral assay and clinical measurements. […] Respiratory rates (breaths per min) were determined by counting over a period of 2-3 mins. […]
# [2] = tested on: estrogen-dependent and independent breast cancer cells; settings: isolated DIM in cell culture; cited from earlier work
# [3] = tested on: chemically induced forms of breast cancer; settings: orally administered, animals; cited from earlier work
# [4] = tested on: Human Papilloma Virus (HPV) oncogene altered cervical cancer cell lines; settings: cited from earlier work
# [5] = tested on: prostate cancer cell lines; settings: cited from earlier work
# breast cancer cells = settings: cited from earlier work
# [6] = lung tissue; cited from earlier work
structure (smiles),measurement,setting,value
"c1ccc2c(Cc3c[nH]c4ccccc34)c[nH]c2c1 [DIM, 3,3′-diindolylmethane]",apoptosis in TUNEL stained photomicrographs,RSV infected A549 cells,clearly showed earlier apoptosis
same,intracellular RSV activity (growth),[1],reduced intracellular RSV growth; also recorded: significantly reduced
same,respiratory rate,RSV Long strain,normalized respiratory rate; also recorded: lower respiratory rate
same,apoptosis effects,[2],apoptosis promoting effects
same,tumor growth,[3],inhibits the growth of certain chemically induced forms of breast cancer
same,induction of apoptosis,[4]; HPV oncogene altered cervical cancer cell lines,specifically induce apoptosis
same,induction of markers of apoptosis compared with I3C,[4]; cell culture,more active than I3C
same,anti-androgen activity,[5],anti-androgen activity similar to non-indole antiandrogen drugs
same,estrogenic activity,breast cancer cells,estrogenic
same,tissue distribution,[6],concentrated in lung tissue
